Measured values as given in PubChem BioAssay (NCI).
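Dose response: 5 concentrations. Exposure: 48 h. Format: 96-well plates. Endpoint: linear interpolation; highest concentration if not reached. GI50 = concentration required for 50% inhibition of growth. TGI marks complete inhibition of growth.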

How the values were obtained:
Experiment in all cases: NCI anticancer screen, dose series, 48 h
[1] = test system: CCRF-CEM leukemia
[2] = test system: M14 melanoma
[3] = test system: MDA-MB-231 breast
[4] = test system: MDA-MB-435
[5] = test system: SR leukemia
[6] = test system: NCI-H522 lung
[7] = test system: MOLT-4 leukemia
[8] = test system: UO-31 renal
[9] = test system: SNB-19 CNS
[10] = test system: T-47D breast
[11] = test system: SN12C renal
[12] = test system: SW-620 colon
[13] = test system: CAKI-1 renal
[14] = test system: OVCAR-5 ovarian
[15] = test system: LOX IMVI melanoma
[16] = test system: HT29 colon
[17] = test system: MALME-3M melanoma
[18] = test system: NCI-H460 lung
[19] = test system: SK-OV-3 ovarian
[20] = test system: PC-3 prostate
[21] = test system: SK-MEL-28 melanoma
[22] = test system: DU-145 prostate
[23] = test system: UACC-257 melanoma
[24] = test system: SF-295 CNS
[25] = test system: 786-0 renal
[26] = test system: SK-MEL-5 melanoma
[27] = test system: SF-268 CNS
[28] = test system: HCC-2998 colon
[29] = test system: COLO 205 colon
[30] = test system: HCT-116 colon
[31] = test system: HS 578T breast
[32] = test system: K-562 leukemia
[33] = test system: HOP-92 NSCLC
[34] = test system: A498 renal
[35] = test system: SNB-75 CNS
[36] = test system: EKVX NSCLC
[37] = test system: OVCAR-8 ovarian
[38] = test system: KM12 colon
[39] = test system: U251 CNS
[40] = test system: SK-MEL-2 melanoma
[41] = test system: HL-60(TB) leukemia
[42] = test system: RXF 393 renal
[43] = test system: A549 NSCLC
[44] = test system: HCT-15 colon
[45] = test system: MCF7 breast
[46] = test system: MDA-MB-468 breast
[47] = test system: BT-549 breast
[48] = test system: UACC-62 melanoma
[49] = test system: ACHN renal
[50] = test system: TK-10 renal
[51] = test system: SF-539 CNS
[52] = test system: OVCAR-3 ovarian
[53] = test system: NCI/ADR-RES ovarian
[54] = test system: NCI-H23 lung
[55] = test system: OVCAR-4 ovarian
[56] = test system: HOP-62 NSCLC
[57] = test system: RPMI-8226 leukemia
[58] = test system: IGROV1 ovarian
[59] = test system: NCI-H226 lung

## S=C(Nc1ccc(OCc2nc3ccc(Cl)cc3[nH]2)cc1)NC1CCCCC1
[1]
  GI50: 3.59 µM
  TGI: 16.6 µM
[2]
  GI50: 6.73 µM
  TGI: 22.5 µM
[3]
  GI50: 7.42 µM
  TGI: 20.4 µM
[4]
  GI50: 6.97 µM
  TGI: 22 µM
[5]
  GI50: 2610 nM
  TGI: 8.45 µM
[6]
  GI50: 2900 nM
  TGI: 12.6 µM
[7]
  GI50: 4.01 µM
  TGI: 13.9 µM
[8]
  GI50: 3.88 µM
  TGI: 16.6 µM
[9]
  GI50: 10.7 µM
  TGI: 22.6 µM
[10]
  GI50: 7.75 µM
  TGI: 26.2 µM
[11]
  GI50: 8.32 µM
  TGI: 21.2 µM
[12]
  GI50: 9.55 µM
  TGI: 24.2 µM
[13]
  GI50: 3.47 µM
  TGI: 15.5 µM
[14]
  GI50: 10.8 µM
  TGI: 22.6 µM
[15]
  GI50: 2830 nM
  TGI: 11.5 µM
[16]
  GI50: 4.44 µM
  TGI: 16 µM
[17]
  GI50: 11.6 µM
  TGI: 23.8 µM
[18]
  GI50: 3.96 µM
  TGI: 14.2 µM
[19]
  GI50: 13.4 µM
  TGI: 27 µM
[20]
  GI50: 4.29 µM
  TGI: 18.7 µM
[21]
  GI50: 12.1 µM
  TGI: 24.5 µM
[22]
  GI50: 11.3 µM
  TGI: 27.7 µM
[23]
  GI50: 7.53 µM
  TGI: 21.6 µM
[24]
  GI50: 9.72 µM
  TGI: 22.9 µM
[25]
  GI50: 7.4 µM
  TGI: 21.4 µM
[26]
  GI50: 5.79 µM
  TGI: 19.5 µM
[27]
  GI50: 8.19 µM
  TGI: 24.5 µM
[28]
  GI50: 3.12 µM
  TGI: 12.5 µM
[29]
  GI50: 10.2 µM
  TGI: 27.6 µM
[30]
  GI50: 5.99 µM
  TGI: 21.5 µM
[31]
  GI50: 7.33 µM
  TGI: 28.7 µM
[32]
  GI50: 3.57 µM
  TGI: 15.1 µM
[33]
  GI50: 3.27 µM
  TGI: 14.7 µM
[34]
  GI50: 11.2 µM
  TGI: 23.8 µM
[35]
  GI50: 1790 nM
  TGI: 15.2 µM
[36]
  GI50: 7.23 µM
  TGI: 20.9 µM
[37]
  GI50: 13.1 µM
  TGI: 28.5 µM
[38]
  GI50: 4.8 µM
  TGI: 17.5 µM
[39]
  GI50: 11.7 µM
  TGI: 24.8 µM
[40]
  GI50: 11.4 µM
  TGI: 24.5 µM
[41]
  GI50: 2630 nM
  TGI: 13.2 µM
[42]
  GI50: 6.21 µM
  TGI: 20.5 µM
[43]
  GI50: 6.51 µM
  TGI: 21.6 µM
[44]
  GI50: 5.5 µM
  TGI: 18.7 µM
[45]
  GI50: 2870 nM
  TGI: 12.4 µM
[46]
  GI50: 2970 nM
  TGI: 13.2 µM
[47]
  GI50: 15 µM
  TGI: 29.1 µM
[48]
  GI50: 6.68 µM
  TGI: 20.4 µM
[49]
  GI50: 4.99 µM
  TGI: 17.4 µM
[50]
  GI50: 12.4 µM
  TGI: 24.9 µM
[51]
  GI50: 12.1 µM
  TGI: 24.5 µM
[52]
  GI50: 4.44 µM
  TGI: 18.8 µM
[53]
  GI50: 9.57 µM
  TGI: 25.3 µM
[54]
  GI50: 8.56 µM
  TGI: 21.4 µM
[55]
  GI50: 6.82 µM
  TGI: 25.1 µM
[56]
  GI50: 12.3 µM
  TGI: 26.4 µM
[57]
  GI50: 7.09 µM
  TGI: 41.8 µM
[58]
  GI50: 6.95 µM
  TGI: 20.2 µM
[59]
  GI50: 10.8 µM
  TGI: 29.1 µM
